Values of other authors as cited in article PMC11171218, “N-Benzylated 5-Hydroxybenzothiophene-2-carboxamides as Multi-Targeted Clk/Dyrk Inhibitors and Potential Anticancer Agents” (Cancers, 2024).

Biological target: Clk1 (Homo sapiens, UniProt P49759)
Parameters: method as in PMID 28561591, PMID 25221649
Conditions: Figure 1; ref [38],[45]; cited from earlier work

Clk1, sequence (P49759 whole entry): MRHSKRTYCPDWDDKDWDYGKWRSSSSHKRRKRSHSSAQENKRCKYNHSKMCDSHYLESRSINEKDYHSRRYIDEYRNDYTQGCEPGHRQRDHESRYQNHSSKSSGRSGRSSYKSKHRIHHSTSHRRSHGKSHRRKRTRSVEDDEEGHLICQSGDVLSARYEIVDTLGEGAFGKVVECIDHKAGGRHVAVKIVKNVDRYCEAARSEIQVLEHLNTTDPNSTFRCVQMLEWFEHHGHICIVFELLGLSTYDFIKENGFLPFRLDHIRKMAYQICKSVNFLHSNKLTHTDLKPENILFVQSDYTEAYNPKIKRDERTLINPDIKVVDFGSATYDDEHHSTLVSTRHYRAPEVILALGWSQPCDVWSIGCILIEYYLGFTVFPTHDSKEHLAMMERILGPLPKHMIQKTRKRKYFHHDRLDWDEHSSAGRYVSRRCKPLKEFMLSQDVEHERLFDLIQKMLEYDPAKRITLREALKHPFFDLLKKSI

| SMILES | IC50 [nM] |
| --- | --- |
| CC(=O)c1cc2cc(O)ccc2s1 [Compound (i)] | 50 |
| Cc1ccc(C(=O)c2cc3cc(O)ccc3s2)cc1O [Compound (ii)] | 60 |
